Laboratory results as given in PMC4557792 (ACS chemical biology, 2013).

Key:
VMAT2 [1] = target: VMAT2 (Rattus norvegicus, UniProt Q01827); format: cell-based; conditions: for inhibitory effect on VMAT2 transport (FFN206 uptake) in screen: tested compound 10 µM, FFN206 1 µM, 30 min preincubation, 60 min uptake
VMAT2-HEK cells = test: Fluorescence microscopy of FFN206 accumulation in VMAT2-HEK cells; format: cell-based, human
VMAT = conditions: cited from earlier work; for IC50: read-out: IC50, inhibiting [3H]DA uptake, rat brain vesicles
VMAT2 [2] = conditions: endogenous substrate; cited from earlier work

Chain of VMAT2 (Rattus norvegicus, UniProt Q01827) (Q01827 whole entry): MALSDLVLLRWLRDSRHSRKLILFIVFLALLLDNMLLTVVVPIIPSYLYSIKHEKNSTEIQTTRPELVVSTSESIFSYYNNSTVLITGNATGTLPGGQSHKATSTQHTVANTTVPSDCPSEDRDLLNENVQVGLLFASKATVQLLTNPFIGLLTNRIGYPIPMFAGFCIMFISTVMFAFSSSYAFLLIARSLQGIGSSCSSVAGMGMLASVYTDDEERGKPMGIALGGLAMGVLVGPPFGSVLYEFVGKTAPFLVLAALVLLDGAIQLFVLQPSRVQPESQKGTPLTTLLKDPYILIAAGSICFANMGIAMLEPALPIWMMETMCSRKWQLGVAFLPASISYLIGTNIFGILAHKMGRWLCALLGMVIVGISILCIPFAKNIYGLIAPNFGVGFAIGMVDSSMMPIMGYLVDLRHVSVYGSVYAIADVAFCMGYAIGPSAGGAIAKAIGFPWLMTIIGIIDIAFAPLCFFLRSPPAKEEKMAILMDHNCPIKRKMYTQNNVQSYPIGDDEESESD

SMILES	inhibitory effect on VMAT2 transport (FFN206 uptake) in screen (VMAT2 [1])	activity in inhibiting vesicular uptake of [3H]DA by VMAT (VMAT)	further results
CCN(CC)CCCC(C)Nc1ccnc2cc(Cl)ccc12 (stereo not shown) [Chloroquine, chloroquine]	reduces VMAT2-dependent uptake		effect on punctate FFN206 fluorescence signal (VMAT2-HEK cells; 100 µM, within 3 minutes of treatment, cells pre-loaded with FFN206 5 µM): completely abolished
C[C@@H](N)Cc1ccccc1 [R(−)-amphetamine]			IC50 (VMAT): 29 µM
C[C@H](N)Cc1ccccc1 [S(+)-amphetamine]			IC50 (VMAT): 3.27 µM
COc1cc2c(cc1OC)C1CC(=O)C(CC(C)C)CN1CC2 (stereo not shown) [TBZ, tetrabenazine]			FFN206 uptake in VMAT2-HEK cells pre-treated with inhibitor (VMAT2-HEK cells; inhibitor 2 µM, 1 hr preincubation then coincubation, FFN206 5 µM, 2 hr): Negligible uptake of FFN206
c1ccc(CN2CCNCC2)cc1 [benzylpiperazine]	no or weak inhibitory effects	inactive	
COC(=O)[C@H]1[C@@H](OC(=O)c2ccccc2)C[C@@H]2CC[C@H]1N2C [cocaine]	no or weak inhibitory effects	inactive	inhibition of FFN206 uptake (negative control) (VMAT2 [1]; 96-well fluorometric assay, VMAT2-HEK cells): no detectable inhibition
CCN(CC)C(C)C(=O)c1ccccc1 (stereo not shown) [diethylpropion]	no or weak inhibitory effects	inactive	
NCCc1ccc(O)c(O)c1 [dopamine]			IC50 (VMAT2 [2]): 0.92 ± 0.05 µM; Km (VMAT2 [2]): 0.82 to 0.95 µM
CC(C)(N)Cc1ccccc1 [phentermine]	no or weak inhibitory effects	inactive	
